Converted amounts (≈) assume the structure as drawn. *1 amine or outer side, *2 acyl side, *3 side chain or, on linkers, in order; H or OH if unused. Where a SMILES comes first, the peptide text is derived from it. Bridges are numbered along the chain shown (N, C = ends). [ ]: non-standard residue; d: D form. The star is where a group is joined. C20 diacid = O=C(O)CCCCCCCCCCCCCCCCCCC(=O)*; γGlu = O=C(O)[C@H](CCC(=O)[*:2])N[*:1]; AEEA = NCCOCCOCC(=O)O
Experiments:
[1] = Solubility of the compound in bis-tris propane at pH 6 by UPLC analysis; format: physicochemical; conditions: bis-tris propane buffer
Insulin (Homo sapiens) [2] = target: Insulin (Homo sapiens) (UniProt P01308); assay: Effect on insulin (unknown origin) amyloid fibril formation assessed as peptide recovery in glycyl-glycine buffer at pH 4 measured after 45 hrs by thioflavin-T fluorescence assay relative to control; design: concentration or dose not given beside the values
Chain of Insulin (Homo sapiens) (P01308 whole entry): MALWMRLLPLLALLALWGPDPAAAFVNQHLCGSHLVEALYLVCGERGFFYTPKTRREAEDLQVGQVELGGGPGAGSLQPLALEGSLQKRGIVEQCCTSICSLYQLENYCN

Rattus norvegicus [3] = assay: Reduction in food intake in Sprague-Dawley rat at 3 nmol/kg, sc administered as single dose measured upto 24 hrs relative to control; format: functional; design: scale not given: the % may be the effect or the level left; conditions: time hrs <=24
[4] = Solubility of the compound in bis-tris propane at pH 7 by UPLC analysis; format: physicochemical; conditions: bis-tris propane buffer
Insulin (Homo sapiens) [5] = target: Insulin (Homo sapiens) (UniProt P01308); assay: Effect on insulin (unknown origin) amyloid fibril formation assessed as lag time in glycyl-glycine buffer at pH 4 measured after 45 hrs by thioflavin-T fluorescence assay
Rattus norvegicus [6] = assay: Reduction in food intake in Sprague-Dawley rat at 3 nmol/kg, sc administered as single dose measured after 24 to 48 hrs relative to control; format: functional; design: scale not given: the % may be the effect or the level left; conditions: time 24-48 hrs
[7] = Agonist activity at rat AMY3R (CT+RAMP3) expressed in tk-ts13 cells assessed as increase in intracellular cAMP level incuabted for 25 mins by CRE luciferase reporter gene assay; format: cell-based; conditions: tk-ts13, 25 min
[8] = Solubility of the compound in lactate at pH 3 by UPLC analysis; format: physicochemical; conditions: lactate buffer
[9] = Agonist activity at human AMY3R (CT+RAMP3) expressed in Hollex1 cells incubated for 3 hrs by luminescence assay; format: cell-based; conditions: Hollex1, 3 h
[10] = Solubility of the compound in bis-tris propane at pH 8 by UPLC analysis; format: physicochemical; conditions: bis-tris propane buffer
[11] = Solubility of the compound in lactate at pH 5 by UPLC analysis; format: physicochemical; conditions: lactate buffer
[12] = Solubility of the compound in bis-tris propane at pH 6.5 by UPLC analysis; format: physicochemical; conditions: bis-tris propane buffer
[13] = Solubility of the compound in lactate at pH 4 by UPLC analysis; format: physicochemical; conditions: lactate buffer
[14] = Solubility of the compound in bis-tris propane at pH 7.5 by UPLC analysis; format: physicochemical; conditions: bis-tris propane buffer
[15] = Agonist activity at rat calcitonin receptor expressed in BHK-13 cells assessed as increase in intracellular cAMP concentration incubated for 25 mins by CRE luciferase reporter gene assay; format: cell-based; conditions: BHK-13, 25 min
[16] = Agonist activity at human calcitonin receptor expressed in BHK570 cells assessed as increase in intracellular cAMP concentration incubated for 3 hrs in absence of albumin by CRE luciferase reporter gene assay; format: cell-based; conditions: BHK570, 3 h
Homo sapiens = species on record: Homo sapiens; assay: Ratio of EC50 for human calcitonin receptor expressed in BHK570 cells to EC50 for human AMY3R (CT+RAMP3) expressed in Hollex1 cells; format: cell-based
Rattus norvegicus [17] = species on record: Rattus norvegicus; assay: Ratio of EC50 for rat calcitonin receptor expressed in BHK-13 cells to EC50 for rat AMY3R (CT+RAMP3) expressed in tk-ts13 cells; format: cell-based

| solubility [1] [µM] | Activity (Insulin (Homo sapiens) [2]) [%] | solubility [4] [µM] | TIME (Insulin (Homo sapiens) [5]) [h] | EC50 [7] [nM] | solubility [8] [µM] | EC50 [9] [nM] | solubility [10] [µM] | solubility [11] [µM] | solubility [12] [µM] | solubility [13] [µM] | solubility [14] [µM] | EC50 [15] [nM] | EC50 [16] [nM] | Structure (SMILES) | Activity (Rattus norvegicus [3]) [%] | Activity (Rattus norvegicus [6]) [%] | Ratio EC50 (Homo sapiens) | Ratio EC50 (Rattus norvegicus [17]) |
| --- | --- | --- | --- | --- | --- | --- | --- | --- | --- | --- | --- | --- | --- | --- | --- | --- | --- | --- |
| 200 (≈ 923 µg/mL) | 0 | 200 (≈ 923 µg/mL) | 2 | 0.277 | 200 (≈ 923 µg/mL) | 0.129 | 200 (≈ 923 µg/mL) | 200 (≈ 923 µg/mL) | 200 (≈ 923 µg/mL) | 200 (≈ 923 µg/mL) | 200 (≈ 923 µg/mL) | 1.34 | 0.205 | CC[C@H](C)[C@H](NC(=O)[C@@H]1CCCN1C(=O)CNC(=O)[C@H](Cc1ccccc1)NC(=O)[C@H](CC(N)=O)NC(=O)[C@H](CC(N)=O)NC(=O)[C@H](CO)NC(=O)[C@H](CO)NC(=O)[C@H](Cc1cnc[nH]1)NC(=O)[C@H](Cc1cnc[nH]1)NC(=O)[C@H](CC(C)C)NC(=O)[C@H](Cc1ccccc1)NC(=O)[C@H](CCC(=O)O)NC(=O)[C@H](C)NC(=O)[C@H](CC(C)C)NC(=O)[C@H](CCCNC(=N)N)NC(=O)[C@H](CCC(N)=O)NC(=O)[C@@H](NC(=O)[C@H](C)NC(=O)[C@@H]1CSSC[C@H](NC(=O)[C@H](CCCNC(=N)N)NC(=O)CC[C@H](NC(=O)CC[C@H](NC(=O)CCCCCCCCCCCCCCCCCCC(=O)O)C(=O)O)C(=O)O)C(=O)N[C@@H](CC(N)=O)C(=O)N[C@@H]([C@@H](C)O)C(=O)N[C@@H](C)C(=O)N[C@@H]([C@@H](C)O)C(=O)N1)[C@@H](C)O)C(=O)N[C@@H](CC(C)C)C(=O)N1CCC[C@H]1C(=O)N1CCC[C@H]1C(=O)N[C@H](C(=O)N[C@@H](CC(N)=O)C(=O)N[C@H](C(=O)NCC(=O)N[C@@H](CO)C(=O)N[C@@H](CC(N)=O)C(=O)N[C@H](C(=O)N[C@@H](Cc1ccc(O)cc1)C(N)=O)[C@@H](C)O)C(C)C)[C@@H](C)O ({C20 diacid-γGlu-γGlu}-RCNTATCATQRLAEFLHHSSNNFGPILPPTNVGSNTY-NH2; disulfide 2-7) | 46 | 39 | 2 | 5 |
| 200 (≈ 1000 µg/mL) | 94 | 200 (≈ 1000 µg/mL) | 45 | 0.233 | 200 (≈ 1000 µg/mL) | 0.14 | 200 (≈ 1000 µg/mL) | 200 (≈ 1000 µg/mL) | 200 (≈ 1000 µg/mL) | 200 (≈ 1000 µg/mL) | 200 (≈ 1000 µg/mL) | 4.48 | 1.08 | CC[C@H](C)[C@H](NC(=O)[C@@H]1CCCN1C(=O)CNC(=O)[C@H](Cc1ccccc1)NC(=O)[C@H](CC(N)=O)NC(=O)[C@H](C)NC(=O)[C@H](CO)NC(=O)[C@H](CO)NC(=O)[C@H](CCCNC(=N)N)NC(=O)[C@H](Cc1cnc[nH]1)NC(=O)[C@H](CC(C)C)NC(=O)[C@H](Cc1ccccc1)NC(=O)[C@H](CCC(=O)O)NC(=O)[C@H](C)NC(=O)[C@H](CC(C)C)NC(=O)[C@H](CCCNC(=N)N)NC(=O)[C@H](CCC(N)=O)NC(=O)[C@@H](NC(=O)[C@H](C)NC(=O)[C@@H]1CSSC[C@H](NC(=O)[C@H](CCCCN)NC(=O)[C@@H](CCCNC(=N)N)NC(=O)[C@@H](CCCNC(=N)N)NC(=O)COCCOCCNC(=O)COCCOCCNC(=O)CC[C@H](NC(=O)CCCCCCCCCCCCCCCCCCC(=O)O)C(=O)O)C(=O)N[C@@H](CC(N)=O)C(=O)N[C@@H]([C@@H](C)O)C(=O)N[C@@H](C)C(=O)N[C@@H]([C@@H](C)O)C(=O)N1)[C@@H](C)O)C(=O)N[C@@H](CC(C)C)C(=O)N1CCC[C@H]1C(=O)N1CCC[C@H]1C(=O)N[C@H](C(=O)N[C@@H](CC(N)=O)C(=O)N[C@H](C(=O)NCC(=O)N[C@@H](CO)C(=O)N[C@@H](CO)C(=O)N[C@H](C(=O)N[C@@H](Cc1ccc(O)cc1)C(N)=O)[C@@H](C)O)C(C)C)[C@@H](C)O ({C20 diacid-γGlu-AEEA-AEEA}-[dR][dR]KCNTATCATQRLAEFLHRSSANFGPILPPTNVGSSTY-NH2; disulfide 4-9) | 16 | 0 | 8 | 19 |

— ChEMBL document CHEMBL4842340, “Development of Cagrilintide, a Long-Acting Amylin Analogue” (J Med Chem, 2021)
